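48-hour exposure; five concentrations; linearly interpolated endpoints. GI50: concentration for 50% inhibition of growth.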 Active and inactive are the calls of the source. No stated cut-off is given here; in the data, active = GI50 up to about 1.1 µM and inactive = higher.
What was measured:
Experiment in all cases: growth of human tumour cells (NCI), 48 h
Hs-578T = system: Hs-578T
786-0 = system: 786-0
OVCAR-8 = system: OVCAR-8
SNB-19 = system: SNB-19
CAKI-1 = system: CAKI-1
PC-3 = system: PC-3
OVCAR-4 = system: OVCAR-4
HCC 2998 = system: HCC 2998
NCI-H460 = system: NCI-H460
SN12C = system: SN12C
NCI-H522 = system: NCI-H522
HCT-116 = system: HCT-116
Malme-3M = system: Malme-3M
UACC-62 = system: UACC-62
EKVX = system: EKVX
MOLT-4 = system: MOLT-4
MCF7 = system: MCF7
HL-60 = system: HL-60

Measured: GI50

Cc1cc2nc3n(c2cc1C)C(c1c(F)cccc1F)SC3 (stereo not drawn)
inactive: Hs-578T 15.4 µM | 786-0 19.3 µM | OVCAR-8 33.3 µM | SNB-19 18.3 µM | CAKI-1 17.3 µM | PC-3 17.7 µM | OVCAR-4 22.9 µM | HCC 2998 21.2 µM | NCI-H460 18.1 µM | SN12C 19.5 µM | NCI-H522 21.3 µM | HCT-116 14.1 µM | Malme-3M 20.8 µM | UACC-62 > 10 µM | EKVX 34.8 µM | MOLT-4 13.7 µM | MCF7 17.5 µM

Cc1cc(Cc2cc(Cc3cc(C)cc(C(C)(C)C)c3O)c(C)cc2C)c(O)c(C(C)(C)C)c1
inactive: HL-60 20.9 µM | Hs-578T 17.5 µM | 786-0 17.1 µM | OVCAR-8 24.9 µM | SNB-19 17.2 µM | CAKI-1 19.9 µM | PC-3 > 100 µM | OVCAR-4 11 µM | HCC 2998 13.5 µM | SN12C 16.6 µM | NCI-H522 14.3 µM | HCT-116 16.4 µM | Malme-3M 12.5 µM | UACC-62 13.4 µM | EKVX 16.6 µM | MOLT-4 16.9 µM | MCF7 12.7 µM

COC(=O)c1ccc(Cc2cc(Cc3ccc(C(=O)OC)cc3)cc(Cc3ccc(C(=O)OC)cc3)c2)cc1
inactive: HL-60 > 25 µM | Hs-578T > 25 µM | 786-0 > 25 µM | OVCAR-8 > 25 µM | SNB-19 > 25 µM | PC-3 > 25 µM | OVCAR-4 16.5 µM | HCC 2998 > 25 µM | NCI-H460 > 25 µM | SN12C > 25 µM | NCI-H522 > 25 µM | HCT-116 > 25 µM | Malme-3M > 25 µM | UACC-62 > 25 µM | EKVX > 25 µM | MOLT-4 > 25 µM | MCF7 > 25 µM

C=C(C)C(=O)O[C@H]1C[C@@]23O[C@@H]2CCC(=C[C@H]2OC(=O)C(=C)[C@H]12)COC3O (stereo partly drawn)
inactive: HL-60 14.7 µM | Hs-578T > 100 µM | 786-0 35.3 µM | OVCAR-8 39.6 µM | SNB-19 > 100 µM | CAKI-1 > 100 µM | PC-3 > 100 µM | OVCAR-4 > 100 µM | HCC 2998 69.3 µM | NCI-H460 > 100 µM | SN12C 49 µM | NCI-H522 14.4 µM | HCT-116 18.9 µM | UACC-62 54.1 µM | EKVX 49.2 µM | MOLT-4 28.7 µM | MCF7 30.6 µM

N=C(N)N/N=C\c1ccc(C2CCNCC2)cc1
inactive: Hs-578T > 100 µM | 786-0 > 100 µM | OVCAR-8 > 100 µM | SNB-19 > 100 µM | CAKI-1 > 100 µM | PC-3 > 100 µM | OVCAR-4 > 100 µM | HCC 2998 > 100 µM | NCI-H460 > 100 µM | SN12C > 100 µM | NCI-H522 > 100 µM | HCT-116 > 100 µM | Malme-3M > 100 µM | UACC-62 > 100 µM | EKVX > 100 µM | MOLT-4 > 100 µM | MCF7 > 100 µM

O=C1/C(=C/c2ccccc2)N=C2Sc3c([nH]cnc3=O)N12
inactive: HL-60 42.3 µM | Hs-578T 73.1 µM | 786-0 > 100 µM | OVCAR-8 > 100 µM | SNB-19 > 100 µM | CAKI-1 > 100 µM | PC-3 > 100 µM | OVCAR-4 35.1 µM | HCC 2998 > 100 µM | SN12C > 100 µM | NCI-H522 > 100 µM | HCT-116 > 100 µM | Malme-3M > 100 µM | EKVX > 100 µM | MOLT-4 44.3 µM | MCF7 > 100 µM

Oc1ccc(/C=N/CC2CCCN3CCCCC23)cc1 (stereo not drawn)
inactive: Hs-578T 33.1 µM | 786-0 17.9 µM | OVCAR-8 44 µM | SNB-19 25.3 µM | CAKI-1 17.8 µM | PC-3 26.4 µM | OVCAR-4 17.8 µM | HCC 2998 20 µM | NCI-H460 25.1 µM | SN12C 19.1 µM | NCI-H522 17.9 µM | HCT-116 16.7 µM | Malme-3M 24.7 µM | UACC-62 24.5 µM | EKVX 27.5 µM | MOLT-4 27.4 µM | MCF7 18.3 µM

O=C1NC(=S)NC(=O)C1=C/C=C/c1ccc([N+](=O)[O-])cc1
inactive: HL-60 3.71 µM | Hs-578T 10.7 µM | 786-0 14.2 µM | OVCAR-8 22.1 µM | SNB-19 17.1 µM | CAKI-1 15.2 µM | PC-3 16.9 µM | OVCAR-4 19.8 µM | HCC 2998 18.4 µM | NCI-H460 27 µM | SN12C 15.8 µM | HCT-116 17.8 µM | Malme-3M 9.66 µM | UACC-62 11 µM | EKVX 17.9 µM | MOLT-4 3.04 µM | MCF7 14 µM

Cc1ccc2c(c1)C(=O)c1nc(C)ccc1C2=O
inactive: HL-60 21.3 µM | Hs-578T > 100 µM | 786-0 43.8 µM | OVCAR-8 27 µM | SNB-19 22.4 µM | CAKI-1 24.8 µM | PC-3 35.2 µM | OVCAR-4 28.2 µM | HCC 2998 34.9 µM | SN12C 26.5 µM | NCI-H522 28.7 µM | HCT-116 23.9 µM | Malme-3M 4.95 µM | UACC-62 24.3 µM | EKVX 29.4 µM | MOLT-4 69.3 µM | MCF7 25.6 µM

Cc1ccccc1NC(=O)C(=O)CC(=O)c1sc(Nc2ccccc2[N+](=O)[O-])nc1C
inactive: HL-60 60.4 µM | Hs-578T 40.8 µM | 786-0 21.5 µM | OVCAR-8 43.4 µM | SNB-19 34.7 µM | CAKI-1 28.4 µM | PC-3 28.1 µM | OVCAR-4 18.2 µM | HCC 2998 24.4 µM | NCI-H460 27.4 µM | SN12C 50.6 µM | NCI-H522 27.7 µM | HCT-116 29.7 µM | UACC-62 18.2 µM | EKVX 34 µM | MOLT-4 51.1 µM | MCF7 23.9 µM

CSc1nc2c(N)ncnc2n1C
inactive: Hs-578T > 100 µM | 786-0 > 100 µM | OVCAR-8 > 100 µM | SNB-19 > 100 µM | CAKI-1 > 100 µM | PC-3 > 100 µM | OVCAR-4 > 100 µM | HCC 2998 > 100 µM | NCI-H460 > 100 µM | SN12C > 100 µM | NCI-H522 > 100 µM | HCT-116 > 100 µM | Malme-3M > 100 µM | UACC-62 > 100 µM | EKVX > 100 µM | MOLT-4 > 100 µM | MCF7 > 100 µM

O=C(O)Cc1cccc2c1OC(c1ccccc1)C(C(=O)c1ccccc1)C2=O (stereo not drawn)
inactive: HL-60 26.5 µM | Hs-578T > 100 µM | 786-0 52.5 µM | OVCAR-8 46.6 µM | SNB-19 45.9 µM | CAKI-1 42.1 µM | PC-3 > 100 µM | HCC 2998 20.4 µM | NCI-H460 30.5 µM | SN12C 45.8 µM | NCI-H522 43.2 µM | HCT-116 33 µM | Malme-3M 63.4 µM | UACC-62 13.4 µM | EKVX 36.2 µM | MOLT-4 43.1 µM | MCF7 34.6 µM

Reference: ChEMBL document CHEMBL1201862, “PubChem BioAssay data set” (2004)
